Assay results: patent US20240118263A1, “TARGET FOR SCREENING ANTI-TUMOR DRUG, USE THEREOF AND SCREENING METHOD THEREFOR” (SHENYANG FUYANG PHARMACEUTICAL TECHNOLOGY CO., LTD., priority 2019, published 2024)

Experiments:
SELH protein degradation = SELH protein degradation (Homo sapiens (Human), UniProt Q8IZQ5)
Description: A cycloheximide (CHX) chase assay was completed to assess ISP I's effect on SELH protein degradation.

LN229 and U251 cells = test: Cell cycle analysis by flow cytometry (EdU and DAPI), glioblastoma cells; type: cell-based; details: LN229 and U251, compared with control cells
Description: For monitoring cell-cycle arrest of ISP I-treated cells, Click-iT EdU Flow Cytometry Assay Kits were used, a product of ThermoFisher Scientific. Cells were co-cultured with EdU at a concentration of 10 μM for 1 hour. After fixation and permeabilization, EdU-positive cells were labeled with Alexa Fluor 647 fluorescein. DAPI also was used for measuring total DNA content to identify differences in cell cycle phases. Data were collected by means of a BD LSRFortessa flow cytometer using FlowJo software. Cells that are positive with EdU and DAPI were in S-Phase of the cell cycle.

SELH [1] = target: SELH (Homo sapiens (Human), UniProt Q8IZQ5); test: Thermo-stability assay (CETSA) in LN229 and 786-O cell lines; type: binding; details: western blot, vs DMSO
Description: Next, the inventors used a thermo-stability assay to confirm SELH was targeted by ISP I in LN229 and 786-O cell lines. The principle of the assay is based on altered protein thermal stabilization/destabilization due to ligand binding in living cells. […] (FIG. 11B and FIG. 12A). To verify further the specificity of ISP I's targeting of SELH, the inventors designed a surface plasmon resonance assay to assess the interaction of ISP I with SELH synthesized in bacteria.
CETSA experiments were performed to determine the ISP I-related ligand induced shifts. Intact and live cells in a 10-cm dish were harvested, washed and resuspended in PBS with protease inhibitor cocktail. Protein of the cells was extracted by freeze-thaw more than three times, using liquid nitrogen. The supernatant was centrifuged at 20,000 g for 20 min at 4° C. Then the samples were aliquoted to several groups incubated with different concentrations of ISP I for 1 hour. After that, samples were aliquoted into PCR tubes and thereafter heated at gradient temperature ranging from 40° C. to 80° C. for 3 min. Then the samples were centrifuged again and resolved using 4-12% SDS-PAGE followed by western blot experiments.

[2] = tested on: SELH-deficient LN229 cells and RCC cells (786-O and RCC4); test: CCK8 assay in SELH-deficient (CRISPR/CAS9) cells; type: cell-based; details: CCK8, compared to wild-type cells
Description: SELH knockout LN229 cell lines and B16 were generated using the CRISPR/Cas9 technique described by Shalem et al., Science 343: 84 (2014). The gDNA for targeting SELH was designed as follows: Oligo 1, 5′-[…]-3′; Oligo 2, 5′-[…]-3′; the gDNA for targeting mouse SELH was designed as follows: Oligo 1, 5′-[…]-3′; Oligo 2, 5′-[…]-3′, and subcloned into Cas9 carrying vector (pX330). The two resultant plasmids and puromycin-expressing vector (pPGK-puro) were co-transfected at a ratio of 1:1:1 into LN229 or B16 cells using Lipofectamine 2000 (Invitrogen). Twenty-four hours later, the transfected cells were subjected to puromycin (Sigma) at 1 μg/mL for 7 days. One week after selection, the surviving clones were expanded, followed by extraction of total protein for standard western blotting analysis.

[3] = tested on: human non-small cell lung cancer cells A549; test: MTT in-vitro anti-tumor activity test, A549; details: MTT
Description: Experimental Materials Human non-small cell lung cancer cells A549, mouse breast cancer cells 4T-1 and mouse melanoma B16-BL6 were purchased from American Type Current Collection (ATCC, Rockville, MD, USA). An RPMI-1640 culture solution containing 10% of fetal calf serum and 2% of glutamine was inoculated with the A549, 4T-1 and B16-BL6 cells, and the cells were incubated at 37° C. in a 5% CO2 incubator.
The compounds were dissolved in DMSO under a sterile condition, and the obtained solutions were diluted to required concentrations by using an RPMI 1640 culture solution, wherein the final concentration of the DMSO was less than 0.5%.
MTT reduction method is used.
A549, 4T-1 and B16-BL6 were used as adherent cells, adherent tumor cells in a logarithmic phase were selected, digested with pancreatin, and then prepared into a cell suspension of 5×10^4/ml with a culture medium containing 10% of calf serum, a 96-well culture plate was inoculated with the cell suspension, wherein each well contained 100 μl of the cell suspension, and incubation was carried out for 24 h at 37° C. and 5% CO2. Replacing was carried out with a new culture solution containing the samples to be detected of different concentrations in the experimental groups, replacing was carried out with a culture solution containing a same volume of solvent in the control group, three parallel wells were set in each group, and incubation was carried out for 48 hours at 37° C. and 5% CO2. The supernate was discarded, careful washing was carried out with PBS twice, 100 μl of a freshly prepared culture medium containing 0.5 mg/ml of MTT was added into each well, and incubation was continued to be carried out at 37° C. for 4 h. The supernatant was carefully discarded, 150 μl of DMSO was added, uniform mixing was carried out for 10 min by using a micro oscillator, and the optical density value was measured at 492 nm by using a microplate reader.
Tumor cell growth inhibition ratio (%)=[A492 (negative control)−A492 (dosing group)]/A492 (negative control)×100%
The median inhibitory concentration (IC50) of the sample is calculated.

SelH [4] = target: SelH (Homo sapiens, UniProt Q8IZQ5, U44C); test: Surface plasmon resonance (SPR) detection of affinity between compounds and SelH; type: binding
Description: A Cys-deficient Escherichia coli expression system was adopted, which is an effective method to prepare selenoprotein found in recent years. Itsbasic principle is as follows: the characteristic that Cys transfer RNA (tRNACys) can bind to Sec was utilized, and a culture medium which is lack of cysteine (Cys) and rich in Selenium cysteine (Sec) was used for culturing a strain, so that Sec was successfully incorporated into newly expressed protein. According to existing literature reports, a human SelH gene sequence was obtained. Selenocysteine of the SelH is in the middle of the sequence and was terminated here during prokaryotic expression, so that the selenocysteine was mutated from a triple codon TGA of the selenocysteine into TGC, which was synthesized by the Sangon Bioengineering (Shanghai) Co., Ltd. In addition, the adopted SPP system was a single protein production system, and a principle of the SPP system was to induce MazF enzyme (mRNA interfering enzyme for cutting RNA on an ACA nucleotide sequence) to cause growth arrest of thalli. The enzyme can specifically recognize and cut the ACA sequence and prevent synthesis of other background proteins in bacteria. Therefore, when mRNA of the desired target protein was encoded, if the mRNA can be designed into a form lacking an ACA base triplet according to an amino acid encoding rule and was induced at 15° C. by using a pCold vector in cells expressing MazF, the mRNA was not enzymatically hydrolyzed, only a protein derived from the mRNA was generated, and there was little synthesis of other cell proteins.
A pColdI-selH plasmid was transformed into BL21 (DE3) Cys-deficient Escherichia coli, so as to obtain a defective expression bacterium pColdI-selH. Sec was added during culture, making it become selenium-containing protein. The target protein was purified by using Ni^2+ column chelating chromatography, and impure protein was eluted by using an imidazole eluent of different concentrations to finally obtain the target protein. Soluble SelH protein was finally obtained, and SDS-PAGE (sodium dodecyl sulfate polyacrylamide gel electrophoresis) analysis was carried out.
A surface plasmon resonance (SPR) method was adopted to detect the interaction condition of a small molecule and a protein, so that the screening of drugs targeting SelH was carried out.
Purified SelH was diluted into a 50 μg/mL protein solution by using 10 mM sodium acetate with a pH value of 5.5, the purified SelH was fixed onto a CM5 chip by an amino coupling method by using Biacore 8K (GE Healthcard, Sweden), and an RU value was recorded.
An isopentenyl or isovaleryl substituted coumarin compound, or a triterpenoid compound with an isopentenyl-like structure (the compound specifically includes aurapten, protopanaxadiol, iso-imperatorin, decursin, osthol, notoginsenoside R1 and shionon) was dissolved in 100% DMSO to be prepared into solutions containing 5% DMSO of different concentrations (0, 31.25, 62.5, 125, 250 and 500 μM) by using a 1.05×PBS-P^+ buffer solution (GE Healthcare, obtained by diluting 10×PBS-P^+).
A single-cycle kinetics method was adopted, the 1.05×PBS-P^+ buffer solution containing 5% DMSO was used as a Running Buffer, different compounds of different concentrations flowed through the SelH fixed onto the chip, wherein the binding time was 120 s, and the change condition of the RU value was recorded. An equilibrium dissociation constant (KD) was calculated by using software in Biacore 8K so as to evaluate the binding affinity between the protein and the compounds. The SPR detection result of the affinity between compounds and SelH in Embodiment 2 of the present disclosure is as shown in FIG. 1A-G, and the result statistics is as shown in Table 1.
(1) Screening of small molecule drugs by taking SelH as a target A surface plasmon resonance (SPR) method was adopted to detect the interaction condition of a small molecule and a protein, so that the screening of drugs targeting SelH was carried out. […]

Chain of SelH (Q8IZQ5 with tags, fused parts or gaps U44C): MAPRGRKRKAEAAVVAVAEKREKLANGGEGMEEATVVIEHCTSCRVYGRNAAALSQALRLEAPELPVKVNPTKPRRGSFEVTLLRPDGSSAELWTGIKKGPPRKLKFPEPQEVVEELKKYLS
Chain of SELH protein degradation (Q8IZQ5 whole entry): as the sequence (Q8IZQ5 with tags, fused parts or gaps U44C) above, with C44U counted along it
Chain of SELH (Q8IZQ5 whole entry): as the sequence (Q8IZQ5 with tags, fused parts or gaps U44C) above, with C44U counted along it

CO[C@@H]1[C@@H](O[C@@H]2O[C@H](C)[C@@H](O[C@H]3C[C@@](C)(O)[C@@H](OC(=O)CC(C)C)[C@H](C)O3)[C@H](N(C)C)[C@H]2O)[C@@H](CC=O)C[C@@H](C)[C@@H](O[C@H]2CC[C@H](N(C)C)[C@@H](C)O2)/C=C/C=C/C[C@@H](C)OC(=O)C[C@H]1O [Isovalerylspiramycin I, 4″-isovalerylspiramycin I]
SELH protein half-life (SELH protein degradation): reduced the SELH protein half-life
cell distribution in cell cycle phases (LN229 and U251 cells): dose-dependent increase in the G0/G1 phase and a decrease in the S phase
thermal protection of SELH (SELH [1]): protective effect of ISP I on SELH was present over a range of increasing temperatures
response of SELH-deficient cells to treatment [2]: SELH-deficient cells were resistant to ISP I treatment
inhibition effect on A549 cells (in words) [3]: significantly inhibited the human lung cancer A549 cells
Kd (SelH [4]; SPR Biacore 8K, single-cycle kinetics, Table 3, read-out: KD binding of macrolides and cyclic peptides to SelH): 2.48 µM
binding activity to the SelH (in words) (SelH [4]; ranking within the table's compounds): strongest
